{
  "source": "PubChem BioAssay AID1966",
  "about": "(Sanford-Burnham Center for Chemical Genomics, 2009)",
  "target": "Beta-galactosidase (Escherichia coli) (UniProt Q8VNN2)",
  "sequence (Q8VNN2 whole entry, looked up)": "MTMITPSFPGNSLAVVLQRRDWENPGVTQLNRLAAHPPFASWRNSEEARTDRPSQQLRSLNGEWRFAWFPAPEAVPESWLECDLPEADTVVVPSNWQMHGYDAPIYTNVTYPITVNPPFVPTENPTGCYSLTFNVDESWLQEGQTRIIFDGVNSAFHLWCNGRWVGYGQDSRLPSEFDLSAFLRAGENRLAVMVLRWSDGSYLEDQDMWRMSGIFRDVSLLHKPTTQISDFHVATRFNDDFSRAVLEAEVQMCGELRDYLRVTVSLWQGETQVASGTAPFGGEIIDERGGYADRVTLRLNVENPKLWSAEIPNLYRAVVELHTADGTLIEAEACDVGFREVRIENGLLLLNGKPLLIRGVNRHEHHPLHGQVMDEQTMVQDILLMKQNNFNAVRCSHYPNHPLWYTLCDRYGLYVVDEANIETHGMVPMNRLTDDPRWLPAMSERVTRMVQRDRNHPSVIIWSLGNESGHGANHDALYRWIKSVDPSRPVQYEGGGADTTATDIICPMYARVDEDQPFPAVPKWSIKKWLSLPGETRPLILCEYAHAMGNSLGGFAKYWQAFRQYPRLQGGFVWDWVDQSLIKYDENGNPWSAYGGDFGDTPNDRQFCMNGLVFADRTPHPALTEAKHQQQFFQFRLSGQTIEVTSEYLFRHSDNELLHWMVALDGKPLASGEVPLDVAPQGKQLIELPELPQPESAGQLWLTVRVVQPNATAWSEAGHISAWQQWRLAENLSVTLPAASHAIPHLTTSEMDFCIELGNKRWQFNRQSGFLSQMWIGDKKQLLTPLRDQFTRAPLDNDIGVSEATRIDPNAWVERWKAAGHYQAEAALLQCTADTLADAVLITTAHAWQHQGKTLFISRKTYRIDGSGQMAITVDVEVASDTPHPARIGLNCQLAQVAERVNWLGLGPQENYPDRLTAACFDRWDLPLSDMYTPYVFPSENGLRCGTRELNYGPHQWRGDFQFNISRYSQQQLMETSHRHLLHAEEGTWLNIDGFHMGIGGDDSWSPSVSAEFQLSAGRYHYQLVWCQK",
  "experiment": "E. coli beta-galactosidase enzyme inhibition, dose response, counter-screen, biochemical (AID 1966)",
  "conditions": "purified E. coli beta-galactosidase enzyme activity",
  "note": "The source made the active and inactive calls. No rule for the calls is given here.",
  "data": [
    {"molecule": "CCNC(=O)C1CCCN1C(=O)C(CCCN=C(N)N)NC(=O)C(CC(C)C)NC(=O)C(Cc1cn(Cc2ccccc2)cn1)NC(=O)C(Cc1ccc(O)cc1)NC(=O)C(CO)NC(=O)C(Cc1c[nH]c2ccccc12)NC(=O)C(Cc1cnc[nH]1)NC(=O)C1CCC(=O)N1", "note": "(stereo unspecified)", "values": [
      {"measurement": "IC50", "value": "> 31.5 µM (inactive)"}
    ]}
  ]
}
